In ChEMBL document CHEMBL4725342, “Design, synthesis and structure-activity relationship study of piperazinone-containing thieno[3,2-d]pyrimidine derivatives as new PI3Kδ inhibitors” (Bioorg Med Chem Lett, 2020):

Experiments:
HEK293 = experiment: Cytotoxicity against human HEK293 cells assessed as reduction in cell viability by MTS assay; format: cell-based
OCI-Ly10 = experiment: Antiproliferative activity against human OCILY10 assessed as reduction in cell growth by MTS assay; format: functional, cell-based
JeKo-1 = experiment: Antiproliferative activity against human JeKo-1 assessed as reduction in cell growth by MTS assay; format: functional, cell-based
OCI-Ly3 = experiment: Antiproliferative activity against human OCILY3 assessed as reduction in cell growth by MTS assay; format: functional, cell-based
SU-DHL-6 = experiment: Antiproliferative activity against human SU-DHL-6 assessed as reduction in cell growth by MTS assay; format: functional, cell-based
L02 = experiment: Cytotoxicity against human L02 cells assessed as reduction in cell viability by MTS assay; format: cell-based
Vero = experiment: Cytotoxicity against monkey Vero cells assessed as reduction in cell viability by MTS assay; format: cell-based; conditions: Chlorocebus sabaeus
[1] = target: T1, Phosphatidylinositol 4,5-bisphosphate 3-kinase catalytic subunit delta isoform (Homo sapiens, UniProt O00329); experiment: Inhibition of PI3Kdelta (unknown origin)
T1 sequence (O00329 whole entry): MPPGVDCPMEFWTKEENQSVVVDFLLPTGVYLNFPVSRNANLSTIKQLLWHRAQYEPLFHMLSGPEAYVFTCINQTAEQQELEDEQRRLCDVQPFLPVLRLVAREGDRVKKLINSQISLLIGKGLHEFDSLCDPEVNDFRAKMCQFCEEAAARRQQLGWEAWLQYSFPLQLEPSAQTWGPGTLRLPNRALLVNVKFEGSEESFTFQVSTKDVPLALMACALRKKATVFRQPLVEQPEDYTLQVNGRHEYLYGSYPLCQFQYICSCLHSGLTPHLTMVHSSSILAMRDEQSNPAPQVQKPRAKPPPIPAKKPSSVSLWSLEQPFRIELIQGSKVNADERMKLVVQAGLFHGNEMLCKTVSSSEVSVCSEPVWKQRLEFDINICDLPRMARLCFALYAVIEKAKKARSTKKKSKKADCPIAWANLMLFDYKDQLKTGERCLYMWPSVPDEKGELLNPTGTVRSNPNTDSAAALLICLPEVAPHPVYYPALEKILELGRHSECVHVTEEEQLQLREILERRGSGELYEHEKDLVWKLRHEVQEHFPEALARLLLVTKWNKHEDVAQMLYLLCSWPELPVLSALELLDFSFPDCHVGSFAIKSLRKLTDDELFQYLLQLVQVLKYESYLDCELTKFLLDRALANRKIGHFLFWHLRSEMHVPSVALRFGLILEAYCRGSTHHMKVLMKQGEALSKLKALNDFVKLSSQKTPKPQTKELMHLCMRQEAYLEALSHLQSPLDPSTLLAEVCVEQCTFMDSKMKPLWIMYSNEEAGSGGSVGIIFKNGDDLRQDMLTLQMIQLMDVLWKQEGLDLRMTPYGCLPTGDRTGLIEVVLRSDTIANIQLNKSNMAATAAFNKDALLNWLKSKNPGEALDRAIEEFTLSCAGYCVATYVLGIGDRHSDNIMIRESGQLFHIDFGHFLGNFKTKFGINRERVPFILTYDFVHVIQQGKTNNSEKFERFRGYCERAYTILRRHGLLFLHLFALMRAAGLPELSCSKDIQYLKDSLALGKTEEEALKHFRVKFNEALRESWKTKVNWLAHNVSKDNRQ

Homo sapiens = species: Homo sapiens; experiment: Selectivity index, ratio of IC50 for PI3Kalpha (unknown origin) to IC50 for PI3Kdelta (unknown origin)
[2] = target: Phosphatidylinositol 4,5-bisphosphate 3-kinase catalytic subunit alpha isoform (Homo sapiens, UniProt P42336); experiment: Inhibition of PI3Kalpha (unknown origin)
Phosphatidylinositol 4,5-bisphosphate 3-kinase catalytic subunit alpha isoform, sequence (P42336 whole entry, canonical isoform): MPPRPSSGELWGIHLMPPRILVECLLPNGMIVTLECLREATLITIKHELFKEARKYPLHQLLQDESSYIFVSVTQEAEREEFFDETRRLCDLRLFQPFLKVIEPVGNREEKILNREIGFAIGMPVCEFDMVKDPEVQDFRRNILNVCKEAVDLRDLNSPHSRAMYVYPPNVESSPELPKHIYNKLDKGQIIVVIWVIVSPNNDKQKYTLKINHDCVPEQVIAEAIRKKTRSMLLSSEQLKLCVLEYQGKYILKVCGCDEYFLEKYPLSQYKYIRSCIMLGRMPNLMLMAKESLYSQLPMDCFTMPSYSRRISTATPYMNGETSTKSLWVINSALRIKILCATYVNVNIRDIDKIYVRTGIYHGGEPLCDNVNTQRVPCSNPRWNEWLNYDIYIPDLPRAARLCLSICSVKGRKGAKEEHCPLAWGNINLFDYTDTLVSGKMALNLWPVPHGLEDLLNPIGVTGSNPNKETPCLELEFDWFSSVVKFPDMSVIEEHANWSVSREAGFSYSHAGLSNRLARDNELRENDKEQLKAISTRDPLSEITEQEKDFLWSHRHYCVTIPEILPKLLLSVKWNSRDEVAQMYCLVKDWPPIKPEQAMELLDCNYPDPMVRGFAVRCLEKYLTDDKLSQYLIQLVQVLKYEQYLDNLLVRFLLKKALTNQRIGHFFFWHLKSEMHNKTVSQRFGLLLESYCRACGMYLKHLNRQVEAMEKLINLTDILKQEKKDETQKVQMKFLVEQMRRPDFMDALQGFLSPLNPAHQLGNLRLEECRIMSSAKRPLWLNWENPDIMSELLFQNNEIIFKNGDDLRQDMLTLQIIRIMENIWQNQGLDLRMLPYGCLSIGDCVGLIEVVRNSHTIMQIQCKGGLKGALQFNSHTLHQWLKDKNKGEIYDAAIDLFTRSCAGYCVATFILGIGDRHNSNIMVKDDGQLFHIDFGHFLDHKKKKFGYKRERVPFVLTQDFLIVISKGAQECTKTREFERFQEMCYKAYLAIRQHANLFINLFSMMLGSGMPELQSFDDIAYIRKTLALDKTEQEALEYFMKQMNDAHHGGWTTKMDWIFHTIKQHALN

[3] = target: Phosphatidylinositol 4,5-bisphosphate 3-kinase catalytic subunit gamma isoform (Homo sapiens, UniProt P48736); experiment: Inhibition of PI3Kgamma (unknown origin)
Phosphatidylinositol 4,5-bisphosphate 3-kinase catalytic subunit gamma isoform, sequence (P48736 whole entry, canonical isoform): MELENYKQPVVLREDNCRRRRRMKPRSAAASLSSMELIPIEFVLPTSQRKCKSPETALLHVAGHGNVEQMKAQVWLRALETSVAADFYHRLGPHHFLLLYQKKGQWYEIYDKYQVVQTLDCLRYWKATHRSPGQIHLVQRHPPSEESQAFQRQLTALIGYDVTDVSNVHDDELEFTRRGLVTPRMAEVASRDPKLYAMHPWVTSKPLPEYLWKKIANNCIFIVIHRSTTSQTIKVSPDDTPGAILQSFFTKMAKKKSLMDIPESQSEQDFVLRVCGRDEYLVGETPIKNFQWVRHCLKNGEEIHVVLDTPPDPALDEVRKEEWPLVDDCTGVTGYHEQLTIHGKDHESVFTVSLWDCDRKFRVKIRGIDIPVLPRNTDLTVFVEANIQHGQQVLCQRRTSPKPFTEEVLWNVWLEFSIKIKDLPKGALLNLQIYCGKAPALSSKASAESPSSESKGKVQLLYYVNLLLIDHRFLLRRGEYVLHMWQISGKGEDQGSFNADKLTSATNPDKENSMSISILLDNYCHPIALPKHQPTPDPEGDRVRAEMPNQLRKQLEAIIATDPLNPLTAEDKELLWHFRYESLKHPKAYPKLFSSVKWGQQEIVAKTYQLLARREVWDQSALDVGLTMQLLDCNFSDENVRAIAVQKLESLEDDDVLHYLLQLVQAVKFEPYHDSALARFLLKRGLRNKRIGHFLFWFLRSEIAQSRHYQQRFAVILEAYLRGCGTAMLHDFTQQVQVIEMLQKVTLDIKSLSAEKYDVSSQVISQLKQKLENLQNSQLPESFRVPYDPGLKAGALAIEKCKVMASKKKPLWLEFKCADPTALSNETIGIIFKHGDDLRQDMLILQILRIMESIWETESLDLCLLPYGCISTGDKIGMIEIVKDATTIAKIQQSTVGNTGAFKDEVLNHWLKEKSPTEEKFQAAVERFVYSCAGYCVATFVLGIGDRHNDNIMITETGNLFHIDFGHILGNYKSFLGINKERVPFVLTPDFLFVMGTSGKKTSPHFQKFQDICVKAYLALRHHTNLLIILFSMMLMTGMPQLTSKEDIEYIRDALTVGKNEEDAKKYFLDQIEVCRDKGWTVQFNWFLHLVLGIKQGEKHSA

[4] = target: Phosphatidylinositol 4,5-bisphosphate 3-kinase catalytic subunit beta isoform (Homo sapiens, UniProt P42338); experiment: Inhibition of PI3Kbeta (unknown origin)
Phosphatidylinositol 4,5-bisphosphate 3-kinase catalytic subunit beta isoform, sequence (P42338 whole entry, canonical isoform): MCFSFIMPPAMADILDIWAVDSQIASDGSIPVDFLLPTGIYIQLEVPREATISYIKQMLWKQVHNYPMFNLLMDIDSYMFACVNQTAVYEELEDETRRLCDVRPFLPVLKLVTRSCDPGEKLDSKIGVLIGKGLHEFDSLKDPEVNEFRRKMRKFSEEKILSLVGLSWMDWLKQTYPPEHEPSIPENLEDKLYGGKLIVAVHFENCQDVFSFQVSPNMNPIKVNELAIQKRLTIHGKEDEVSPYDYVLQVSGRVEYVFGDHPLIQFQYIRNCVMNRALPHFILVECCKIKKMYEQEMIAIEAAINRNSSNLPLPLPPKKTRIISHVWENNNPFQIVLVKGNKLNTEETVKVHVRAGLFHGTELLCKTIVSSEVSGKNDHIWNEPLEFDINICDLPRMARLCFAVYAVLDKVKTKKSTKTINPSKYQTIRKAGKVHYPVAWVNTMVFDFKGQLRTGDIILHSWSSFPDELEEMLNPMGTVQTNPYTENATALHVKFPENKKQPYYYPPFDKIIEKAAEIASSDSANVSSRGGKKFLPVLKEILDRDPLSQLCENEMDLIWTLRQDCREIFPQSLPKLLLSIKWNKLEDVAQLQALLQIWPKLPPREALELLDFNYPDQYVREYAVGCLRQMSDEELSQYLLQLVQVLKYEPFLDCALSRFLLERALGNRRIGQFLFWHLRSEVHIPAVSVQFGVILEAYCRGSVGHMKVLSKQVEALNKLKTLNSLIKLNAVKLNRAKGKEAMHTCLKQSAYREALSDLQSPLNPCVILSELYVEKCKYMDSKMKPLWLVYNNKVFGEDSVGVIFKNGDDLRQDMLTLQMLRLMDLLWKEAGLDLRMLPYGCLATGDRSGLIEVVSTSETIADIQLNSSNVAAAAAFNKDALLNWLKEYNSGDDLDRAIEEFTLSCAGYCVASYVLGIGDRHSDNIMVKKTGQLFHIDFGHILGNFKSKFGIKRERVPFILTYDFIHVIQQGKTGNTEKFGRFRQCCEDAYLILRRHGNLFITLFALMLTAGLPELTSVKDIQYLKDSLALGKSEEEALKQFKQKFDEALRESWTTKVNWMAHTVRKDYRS

| Structure (SMILES) | IC50 [1] | Ratio IC50 (Homo sapiens) | other results |
| --- | --- | --- | --- |
| CC[C@H](Nc1ncnc2[nH]cnc12)c1nc2cccc(F)c2c(=O)n1-c1ccccc1 [IDELALISIB] | – | – | IC50 (HEK293): > 20000 nM; IC50 (OCI-Ly10): > 10000 nM; IC50 (JeKo-1): 120 nM; IC50 (OCI-Ly3): 5200 nM; IC50 (SU-DHL-6): 120 nM; IC50 (L02): > 20000 nM; IC50 (Vero): > 20000 nM |
| CCc1nc2ccccc2n1-c1nc(N2CCOCC2)c2sc(CN3CCN(C4CCC(N(C)C)CC4)CC3=O)cc2n1 (configuration not stated) | 14 nM | 36 | – |
| CCc1nc2ccccc2n1-c1nc(N2CCOCC2)c2sc(CN3CCN(C4CCN(C)CC4)CC3=O)cc2n1 | 15 nM | 25 | – |
| CCc1nc2ccccc2n1-c1nc(N2CCOCC2)c2sc(CN3CCN(C4CCCCC4)CC3=O)cc2n1 | 12 nM | 21 | – |
| CCc1nc2ccccc2n1-c1nc(N2CCOCC2)c2sc(CN3CCN(C4CCCC4)CC3=O)cc2n1 | 2.9 nM | – | IC50 (HEK293): > 20000 nM; IC50 (OCI-Ly10): > 10000 nM; IC50 (JeKo-1): 560 nM; IC50 [2]: 243 nM; IC50 [3]: 370 nM; IC50 (OCI-Ly3): 6900 nM; IC50 (SU-DHL-6): 530 nM; IC50 (L02): > 20000 nM; IC50 (Vero): > 20000 nM; IC50 [4]: > 500 nM |
| CCc1nc2ccccc2n1-c1nc(N2CCOCC2)c2sc(CN3CCN(c4cnn(C)c4)C(=O)C3)cc2n1 | 3.4 nM | 24 | – |
| C=CC(=O)N1CCN(Cc2cc3nc(-n4c(CC)nc5ccccc54)nc(N4CCOCC4)c3s2)C(=O)C1 | 2.9 nM | 43 | – |
| CCc1nc2ccccc2n1-c1nc(N2CCOCC2)c2sc(CN3CCN(C(C)C)CC3=O)cc2n1 | 2.1 nM | 53 | – |
| CCc1nc2ccccc2n1-c1nc(N2CCOCC2)c2sc(CN3CCN(C(=O)C4CCCC4)CC3=O)cc2n1 | 2 nM | 95 | – |
| CCc1nc2ccccc2n1-c1nc(N2CCOCC2)c2sc(CN3CCN(C4CCSCC4)CC3=O)cc2n1 | 4.8 nM | 56 | – |
| CCc1nc2ccccc2n1-c1nc(N2CCOCC2)c2sc(CN3CCN(CC(=O)N4CCOCC4)C(=O)C3)cc2n1 | 15 nM | 11 | – |
| CCc1nc2ccccc2n1-c1nc(N2CCOCC2)c2sc(CN3CCN(C(=O)C4CCC4)CC3=O)cc2n1 | 1.4 nM | – | IC50 (HEK293): > 20000 nM; IC50 (OCI-Ly10): > 10000 nM; IC50 (JeKo-1): 120 nM; IC50 [2]: 117 nM; IC50 [3]: 303 nM; IC50 (OCI-Ly3): 1500 nM; IC50 (SU-DHL-6): 80 nM; IC50 (L02): > 20000 nM; IC50 (Vero): > 20000 nM; IC50 [4]: 165 nM |
| CCc1nc2ccccc2n1-c1nc(N2CCOCC2)c2sc(CN3CCN(C4CCOCC4)CC3=O)cc2n1 | 6.2 nM | 61 | – |
| C=CCN1CCN(Cc2cc3nc(-n4c(CC)nc5ccccc54)nc(N4CCOCC4)c3s2)C(=O)C1 | 1.6 nM | – | IC50 (HEK293): > 20000 nM; IC50 (OCI-Ly10): > 10000 nM; IC50 (JeKo-1): 470 nM; IC50 [2]: 295 nM; IC50 [3]: 266 nM; IC50 (OCI-Ly3): 8600 nM; IC50 (SU-DHL-6): 570 nM; IC50 (L02): > 20000 nM; IC50 (Vero): > 20000 nM; IC50 [4]: 232 nM |
| CCc1nc2ccccc2n1-c1nc(N2CCOCC2)c2sc(CN3CCN(C4CCC(F)(F)CC4)CC3=O)cc2n1 | 3.8 nM | 71 | – |
| CCc1nc2ccccc2n1-c1nc(N2CCOCC2)c2sc(CN3CCN(CC(F)(F)F)CC3=O)cc2n1 | 6.3 nM | 32 | – |
| CCc1nc2ccccc2n1-c1nc(N2CCOCC2)c2sc(CN3CCN(C4CCC(=O)CC4)CC3=O)cc2n1 | 1.6 nM | – | – |
| CCc1nc2ccccc2n1-c1nc(N2CCOCC2)c2sc(CN3CCN(CC(N)=O)CC3=O)cc2n1 | 6.2 nM | 25 | – |
| CCc1nc2ccccc2n1-c1nc(N2CCOCC2)c2sc(CN3CCN(C4CCC(O)CC4)C(=O)C3)cc2n1 (configuration not stated) | 5.7 nM | 7.7 | – |
| CCc1nc2ccccc2n1-c1nc(N2CCOCC2)c2sc(CN3CCN(C(=O)OC(C)(C)C)CC3=O)cc2n1 | 12 nM | 52 | – |
| CCc1nc2ccccc2n1-c1nc(N2CCOCC2)c2sc(CN3CCN(C4CCC5(CC4)OCCO5)CC3=O)cc2n1 | 2.2 nM | 13 | – |
| CCc1nc2ccccc2n1-c1nc(N2CCOCC2)c2sc(CN3CCN(C4CCC(N5CCCC5)CC4)CC3=O)cc2n1 (configuration not stated) | 14 nM | 8 | – |
| CCc1nc2ccccc2n1-c1nc(N2CCOCC2)c2sc(CN3CCN(C4CCCC4)C(=O)C3)cc2n1 | 2.1 nM | – | IC50 (HEK293): > 20000 nM; IC50 (OCI-Ly10): > 10000 nM; IC50 (JeKo-1): 170 nM; IC50 [2]: 250 nM; IC50 [3]: > 500 nM; IC50 (OCI-Ly3): 2800 nM; IC50 (SU-DHL-6): 180 nM; IC50 (L02): > 20000 nM; IC50 (Vero): > 20000 nM; IC50 [4]: > 500 nM |
| CCc1nc2ccccc2n1-c1nc(N2CCOCC2)c2sc(CN3CCN(c4cccnc4)C(=O)C3)cc2n1 | 13 nM | 12 | – |
| CCc1nc2ccccc2n1-c1nc(N2CCOCC2)c2sc(CN3CCN(C(=O)C4CCCCC4)CC3=O)cc2n1 | 7.9 nM | 43 | – |
| CCc1nc2ccccc2n1-c1nc(N2CCOCC2)c2sc(CN3CCN(c4nccs4)C(=O)C3)cc2n1 | 2.1 nM | 7.7 | – |
| CCc1nc2ccccc2n1-c1nc(N2CCOCC2)c2sc(CN3CCN(CC4CC4)CC3=O)cc2n1 | 6.3 nM | 64 | – |
| CCc1nc2ccccc2n1-c1nc(N2CCOCC2)c2sc(CN3CCN(C(=O)C4CC4)CC3=O)cc2n1 | 1.1 nM | – | IC50 (HEK293): > 20000 nM; IC50 (OCI-Ly10): 7600 nM; IC50 (JeKo-1): 190 nM; IC50 [2]: 84 nM; IC50 [3]: 185 nM; IC50 (OCI-Ly3): 2200 nM; IC50 (SU-DHL-6): 100 nM; IC50 (L02): > 20000 nM; IC50 (Vero): > 20000 nM; IC50 [4]: 137 nM |
| CCc1nc2ccccc2n1-c1nc(N2CCOCC2)c2sc(CN3CCN(C(=O)[C@H](C)O)CC3=O)cc2n1 | 3.6 nM | 49 | – |
| CCc1nc2ccccc2n1-c1nc(N2CCOCC2)c2sc(CN3CCN([C@H]4CC[C@H](O)CC4)C(=O)C3)cc2n1 | 2.1 nM | 35 | – |

Second part, led by results:

| IC50 [1] | Ratio IC50 (Homo sapiens) | Structure (SMILES) | other results |
| --- | --- | --- | --- |
| 4.9 nM | 53 | CCc1nc2ccccc2n1-c1nc(N2CCOCC2)c2sc(CN3CCN(C)C(=O)C3)cc2n1 | – |
| 4.4 nM | 10 | CCc1nc2ccccc2n1-c1nc(N2CCOCC2)c2sc(CN3CCN(S(=O)(=O)CC)CC3=O)cc2n1 | – |
| 4.1 nM | 2.4 | CCc1nc2ccccc2n1-c1nc(N2CCOCC2)c2sc(CN3CCN(S(C)(=O)=O)CC3)cc2n1 | – |
| 4.8 nM | 13 | CCc1nc2ccccc2n1-c1nc(N2CCOCC2)c2sc(CN3CCN(S(=O)(=O)C4CC4)CC3)cc2n1 | – |
| 3.5 nM | 4 | CCCS(=O)(=O)N1CCN(Cc2cc3nc(-n4c(CC)nc5ccccc54)nc(N4CCOCC4)c3s2)C(=O)C1 | – |
| 1.2 nM | 38 | CCc1nc2ccccc2n1-c1nc(N2CCOCC2)c2sc(CN3CCN(S(=O)(=O)C4CC4)CC3=O)cc2n1 | – |
| 20 nM | 13 | CCc1nc2ccccc2n1-c1nc(N2CCOCC2)c2sc(CN3CCNC(=O)C3)cc2n1 | – |
| 12 nM | 7.1 | CCc1nc2ccccc2n1-c1nc(N2CCOCC2)c2sc(CN3CCN(CC(N)=O)C(=O)C3)cc2n1 | – |
| 4.5 nM | 7.7 | CCc1nc2ccccc2n1-c1nc(N2CCOCC2)c2sc(CN3CCN(C)CC3=O)cc2n1 | – |
| 2.5 nM | 49 | CCc1nc2ccccc2n1-c1nc(N2CCOCC2)c2sc(CN3CCN(CC4CC4)C(=O)C3)cc2n1 | – |
| 42 nM | 31 | CCc1nc2ccccc2n1-c1nc(N2CCOCC2)c2sc(CN3CCN(C4CCCC4)CC3)cc2n1 | – |
| 4.1 nM | 10 | CCc1nc2ccccc2n1-c1nc(N2CCOCC2)c2sc(CN3CCN(CC)C(=O)C3)cc2n1 | – |
| 2.2 nM | 10 | CCc1nc2ccccc2n1-c1nc(N2CCOCC2)c2sc(CN3CCN(S(C)(=O)=O)CC3=O)cc2n1 | – |
| 3.2 nM | 35 | CCc1nc2ccccc2n1-c1nc(N2CCOCC2)c2sc(CN3CCN(C(C)=O)CC3=O)cc2n1 | – |
